For 23 molecules, IC50 results are on record in patent US10450316B2, “Certain protein kinase inhibitor” (Chongqing Fochon Pharmaceutical Co., Ltd., priority 2015, dated 2019).

The experiment deals with BE(2)-C cell. The experiment can be described thus: Cell proliferation assay (MTS) in BE(2)-C cells. Format: cell-based. The following applies: Homo sapiens, inhibition of BE(2)-C cell proliferation, 48 h. A digest of the protocol:
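BE(2)-C cells (3000/well, DMEM + 10% FBS) were treated for 48 h at 37 °C with compound at 1.5–10000 nM in nine concentrations. Viability was measured by MTS (2 h, stopped with SDS) at 490/650 nm, and IC50 was calculated from the dose-response.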

Some results are limits rather than exact numbers.

As a reminder, the IC50 is the concentration that gives 50% inhibition. The molecule `C[C@@H]1CCc2nc3c(F)cc(-c4nc(Nc5ccc(CN6CC7(CNC7)C6)cn5)ncc4F)cc3n21` [Example 95, (R)-N-(5-((2,6-diazaspiro[3.3]heptan-2-yl)methyl)pyridin-2-yl)-5-fluoro-4-(5-fluoro-1-methyl-2,3-dihydro-1H-benzo[d]pyrrolo[1,2-a]imidazol-7-yl)pyrimidin-2-amine] gave an IC50 greater than 1000 nM.
`C[C@@H]1CCc2nc3c(F)cc(-c4nc(Nc5ccc(CN6CC7(CN(C)C7)C6)cn5)ncc4F)cc3n21` [Example 96, (R)-5-fluoro-4-(5-fluoro-1-methyl-2,3-dihydro-1H-benzo[d]pyrrolo[1,2-a]imidazol-7-yl)-N-(5-((6-methyl-2,6-diazaspiro[3.3]heptan-2-yl)methyl)pyridin-2-yl)pyrimidin-2-amine] displayed an IC50 greater than 100 nM.
The molecule `CCN1CCC2(CC1)CCN(Cc1ccc(Nc3ncc(F)c(-c4cc(F)c5nc6n(c5c4)[C@H](C)CC6)n3)nc1)CC2` [Example 94, (R)-N-(5-((9-ethyl-3,9-diazaspiro[5.5]undecan-3-yl)methyl)pyridin-2-yl)-5-fluoro-4-(5-fluoro-1-methyl-2,3-dihydro-1H-benzo[d]pyrrolo[1,2-a]imidazol-7-yl)pyrimidin-2-amine] returned an IC50 greater than 100 nM.
Molecule `Fc1cnc(Nc2ccc(CN3CCNCC3)cn2)nc1-c1cc(F)c2nc3n(c2c1)[C@H](C(F)F)CC3` [Example 10, (S)-4-(1-(difluoromethyl)-5-fluoro-2,3-dihydro-1H-benzo[d]pyrrolo[1,2-a]imidazol-7-yl)-5-fluoro-N-(5-(piperazin-1-ylmethyl)pyridin-2-yl)pyrimidin-2-amine] gave a half-maximal inhibitory concentration (IC50) greater than 100 nM.
The molecule `CCN1C2CCC1CN(Cc1ccc(Nc3ncc(F)c(-c4cc(F)c5nc6n(c5c4)[C@H](CF)CC6)n3)nc1)C2` [Example 37, N-(5-((8-ethyl-3,8-diazabicyclo[3.2.1]octan-3-yl)methyl)pyridin-2-yl)-5-fluoro-4-((S)-5-fluoro-1-(fluoromethyl)-2,3-dihydro-1H-benzo[d]pyrrolo[1,2-a]imidazol-7-yl)pyrimidin-2-amine] came in with an IC50 of 10 to 100 nM.
Take `CCN1CCC2(CC1)CN(Cc1ccc(Nc3ncc(F)c(-c4cc(F)c5nc6n(c5c4)[C@H](C(F)(F)F)CC6)n3)nc1)C2` [Example 63, (S)-N-(5-((7-ethyl-2,7-diazaspiro[3.5]nonan-2-yl)methyl)pyridin-2-yl)-5-fluoro-4-(5-fluoro-1-(trifluoromethyl)-2,3-dihydro-1H-benzo[d]pyrrolo[1,2-a]imidazol-7-yl)pyrimidin-2-amine]: the IC50 fell in the range of 10 to 100 nM.
In the case of `CC1(C)CCc2nc3c(F)cc(-c4nc(Nc5ccc(CN6CCN7CCC[C@@H]7C6)cn5)ncc4F)cc3n21` [Example 110, (R)-5-fluoro-4-(5-fluoro-1,1-dimethyl-2,3-dihydro-1H-benzo[d]pyrrolo[1,2-a]imidazol-7-yl)-N-(5-((hexahydropyrrolo[1,2-a]pyrazin-2(1H)-yl)methyl)pyridin-2-yl)pyrimidin-2-amine], the half-maximal inhibitory concentration (IC50) lay within 10 to 100 nM.
Turning to `CCN1CCN(c2ccc(Nc3ncc(F)c(-c4cc(F)c5nc6n(c5c4)[C@H](C(F)F)CC6)n3)nc2)CC1` [Example 40, (S)-4-(1-(difluoromethyl)-5-fluoro-2,3-dihydro-1H-benzo[d]pyrrolo[1,2-a]imidazol-7-yl)-N-(5-(4-ethylpiperazin-1-yl)pyridin-2-yl)-5-fluoropyrimidin-2-amine], the concentration for half-maximal inhibition (IC50) was greater than 1000 nM.
As to `Fc1cnc(Nc2ccc(CN3CC4CNC4C3)cn2)nc1-c1cc(F)c2nc3n(c2c1)C1(CC3)CC1` (centres unmarked) [Example 141, N-(5-((3,6-diazabicyclo[3.2.0]heptan-3-yl)methyl)pyridin-2-yl)-5-fluoro-4-(5-fluoro-2,3-dihydro-spiro[benzo[d]pyrrolo[1,2-a]imidazole-1,1′-cyclo-propan]-7-yl)pyrimidin-2-amine], the IC50 was greater than 1000 nM.
The molecule `Fc1cnc(Nc2ccc(CN3CCNCC3)cn2)nc1-c1cc(F)c2nc3n(c2c1)CCC3` [Example 149, 5-fluoro-4-(5-fluoro-2,3-dihydro-1H-benzo[d]pyrrolo[1,2-a]imidazol-7-yl)-N-(5-(piperazin-1-ylmethyl)pyridin-2-yl)pyrimidin-2-amine] came in with an IC50 greater than 100 nM.
On to `CC1(C)CCc2nc3c(F)cc(-c4cc(Nc5ccc(CN6C7CCC6CNC7)cn5)ncc4F)cc3n21` [Example 161, N-(5-((3,8-diazabicyclo[3.2.1]octan-8-yl)methyl)pyridin-2-yl)-5-fluoro-4-(5-fluoro-1,1-dimethyl-2,3-dihydro-1H-benzo[d]pyrrolo[1,2-a]imidazol-7-yl)pyridin-2-amine], for which the IC50 was greater than 100 nM.
As for `C[C@@H]1CCc2nc3c(F)cc(-c4nc(Nc5ccc(CN6CC7CN(C)CC7C6)cn5)ncc4F)cc3n21` (stereo partly drawn) [Example 99, 5-fluoro-4-((R)-5-fluoro-1-methyl-2,3-dihydro-1H-benzo[d]pyrrolo[1,2-a]imidazol-7-yl)-N-(5-((5-methylhexahydropyrrolo[3,4-c]pyrrol-2(1H)-yl)methyl)pyridin-2-yl)pyrimidin-2-amine], the IC50 fell in the range of 10 to 100 nM.
`CCN1CCC2(CC1)CCN(Cc1ccc(Nc3ncc(F)c(-c4cc(F)c5nc6n(c5c4)[C@H](C(F)(F)F)CC6)n3)nc1)CC2` [Example 72, (S)-N-(5-((9-ethyl-3,9-diazaspiro[5.5]undecan-3-yl)methyl)pyridin-2-yl)-5-fluoro-4-(5-fluoro-1-(trifluoromethyl)-2,3-dihydro-1H-benzo[d]pyrrolo [1,2-a]imidazol-7-yl)pyrimidin-2-amine] showed an IC50 of 10 to 100 nM.
`CCN1CC2(C1)CN(Cc1ccc(Nc3ncc(F)c(-c4cc(F)c5nc6n(c5c4)[C@H](C(F)(F)F)CC6)n3)nc1)C2` [Example 69, (S)-N-(5-((6-ethyl-2,6-diazaspiro[3.3]heptan-2-yl)methyl)pyridin-2-yl)-5-fluoro-4-(5-fluoro-1-(trifluoromethyl)-2,3-dihydro-1H-benzo[d]pyrrolo[1,2-a]imidazol-7-yl)pyrimidin-2-amine] showed an IC50 of 10 to 100 nM.
In turn, `Fc1cnc(Nc2ccc(CN3CC4CC(C3)N4)cn2)nc1-c1cc(F)c2nc3n(c2c1)C1(CC3)CC1` [Example 132, N-(5-((3,6-diazabicyclo[3.1.1]heptan-3-yl)methyl)pyridin-2-yl)-5-fluoro-4-(5-fluoro-2,3-dihydrospiro[benzo[d]pyrrolo[1,2-a]imidazole-1,1′-cyclopropan]-7-yl)pyrimidin-2-amine] had an IC50 greater than 100 nM.
For `C[C@@H]1CCc2nc3c(F)cc(-c4nc(Nc5ccc(CN6CCC7(CCN(C)CC7)CC6)cn5)ncc4F)cc3n21` [Example 93, (R)-5-fluoro-4-(5-fluoro-1-methyl-2,3-dihydro-1H-benzo[d]pyrrolo[1,2-a]imidazol-7-yl)-N-(5-((9-methyl-3,9-diazaspiro[5.5]undecan-3-yl)methyl)pyridin-2-yl)pyrimidin-2-amine], the half-maximal inhibitory concentration (IC50) was greater than 100 nM.
In the case of `CN1CC2CCC(C1)N2Cc1ccc(Nc2ncc(F)c(-c3cc(F)c4nc5n(c4c3)[C@H](C(F)(F)F)CC5)n2)nc1` [Example 77, 5-fluoro-4-((S)-5-fluoro-1-(trifluoromethyl)-2,3-dihydro-1H-benzo[d]pyrrolo[1,2-a]imidazol-7-yl)-N-(5-((3-methyl-3,8-diazabicyclo[3.2.1]octan-8-yl)methyl)pyridin-2-yl)pyrimidin-2-amine], the IC50 lay within 10 to 100 nM.
`CN1CC2CCC(C1)N2Cc1ccc(Nc2ncc(F)c(-c3cc(F)c4nc5n(c4c3)[C@H](CF)CC5)n2)nc1` [Example 33, 5-fluoro-4-((S)-5-fluoro-1-(fluoromethyl)-2,3-dihydro-1H-benzo[d]pyrrolo[1,2-a]imidazol-7-yl)-N-(5-((3-methyl-3,8-diazabicyclo[3.2.1]octan-8-yl)methyl)pyridin-2-yl)pyrimidin-2-amine] came in with an IC50 of 10 to 100 nM.
As for `CCN1CCC2(CC1)CCN(Cc1ccc(Nc3ncc(F)c(-c4cc(F)c5nc6n(c5c4)C(C)(C)CC6)n3)nc1)CC2` [Example 122, N-(5-((9-ethyl-3,9-diazaspiro[5.5]undecan-3-yl)methyl)pyridin-2-yl)-5-fluoro-4-(5-fluoro-1,1-dimethyl-2,3-dihydro-1H-benzo[d]pyrrolo[1,2-a]imidazol-7-yl)pyrimidin-2-amine], the half-maximal inhibitory concentration (IC50) lay within 10 to 100 nM.
The molecule `CN1CCN(Cc2cnc(Nc3cc(-c4cc(F)c5nc6n(c5c4)C(C)(C)CC6)c(F)cn3)nc2)CC1` [Example 165, N-(5-fluoro-4-(5-fluoro-1,1-dimethyl-2,3-dihydro-1H-benzo[d]pyrrolo[1,2-a]imidazol-7-yl)pyridin-2-yl)-5-((4-methylpiperazin-1-yl)methyl)pyrimidin-2-amine] returned an IC50 greater than 100 nM.
Consider `CN1CCC2(CC1)CN(Cc1ccc(Nc3ncc(F)c(-c4cc(F)c5nc6n(c5c4)C(C)(C)CC6)n3)nc1)C2` [Example 112, 5-fluoro-4-(5-fluoro-1,1-dimethyl-2,3-dihydro-1H-benzo[d]pyrrolo[1,2-a]imidazol-7-yl)-N-(5-((7-methyl-2,7-diazaspiro[3.5]nonan-2-yl)methyl)pyridin-2-yl)pyrimidin-2-amine], for which the IC50 is less than 10 nM.
For `Fc1cnc(Nc2ccc(CN3CCN4CCC[C@@H]4C3)cn2)nc1-c1cc(F)c2nc3n(c2c1)[C@H](C(F)F)CC3` [Example 41, 4-((S)-1-(difluoromethyl)-5-fluoro-2,3-dihydro-1H-benzo[d]pyrrolo[1,2-a]imidazol-7-yl)-5-fluoro-N-(5-(((R)-hexahydropyrrolo[1,2-a]pyrazin-2(1H)-yl)methyl)pyridin-2-yl)pyrimidin-2-amine] the value was 10 to 100 nM; for `COC[C@@H]1CCc2nc3c(F)cc(-c4nc(Nc5ccc(CN6CCNCC6)cn5)ncc4F)cc3n21` [Example 7, (S)-5-fluoro-4-(5-fluoro-1-(methoxymethyl)-2,3-dihydro-1H-benzo[d]pyrrolo[1,2-a]imidazol-7-yl)-N-(5-(piperazin-1-ylmethyl)pyridin-2-yl)pyrimidin-2-amine], greater than 100 nM.
